Where “and” joins values, the source holds several entries; their conditions need not be identical. Identical values can stand only once. ± gives the uncertainty stated by the source.
Key:
[1] = xn = mol fraction of the nth substance listed

CCCCCCCCCCCC[N+](C)(C)Cc1ccccc1.O=S(=O)([N-]S(=O)(=O)C(F)(F)F)C(F)(F)F
101 kPa
Conditions | viscosity [mPa·s]
298.15 K | 1425 ± 200
303.15 K | 974.3 ± 130
308.15 K | 682.7 ± 88
313.15 K | 484.8 ± 59
318.15 K | 351.1 ± 41
323.15 K | 260.6 ± 29

C=Cn1cc[n+](CC(N)=O)c1.O=S(=O)([N-]S(=O)(=O)C(F)(F)F)C(F)(F)F
100 kPa
Conditions | viscosity [mPa·s]
298.15 K | 280.7 ± 58
303.15 K | 140.3 ± 28
308.15 K | 71.51 ± 14
313.15 K | 35.3 ± 7.1
318.15 K | 19.85 ± 4
323.15 K | 12.53 ± 2.5

CCCC[n+]1cc[nH]c1.O=S(=O)([N-]S(=O)(=O)C(F)(F)F)C(F)(F)F
Conditions | viscosity [mPa·s]
313.2 K, 101.33 kPa | 47.18 ± 5.1

O=Cc1ccco1
100 kPa
Conditions | viscosity [mPa·s]
293.15 K | 1.62 ± 0.65
298.15 K | 1.48 ± 0.59
303.15 K | 1.36 ± 0.54
308.15 K | 1.26 ± 0.5
313.15 K | 1.17 ± 0.47
318.15 K | 1.09 ± 0.44
323.15 K | 1.02 ± 0.41

CCCCOC(=O)C(C)O (stereo not given)
Conditions | viscosity [mPa·s]
318.15 K, 101 kPa | 1.935 ± 0.034

CC1CCC(=O)O1 (stereo not given)
101 kPa
Conditions | viscosity [mPa·s]
298.15 K | 1.873 ± 0.016
303.15 K | 1.72 ± 0.015
308.15 K | 1.586 ± 0.014
313.15 K | 1.458 ± 0.013
318.15 K | 1.364 ± 0.012

N
Conditions | viscosity [mPa·s]
293.15 K, 101 kPa | 0.144 ± 0.004

CCCCOCCOCCOCCO
101 kPa
Conditions | viscosity [mPa·s]
293.15 K | 9.282 ± 0.055
303.15 K | 6.528 ± 0.04
313.15 K | 4.979 ± 0.032
323.15 K | 3.769 ± 0.024

C[N+](=O)[O-]
Conditions | viscosity
293.15 K, 101 kPa | 0.648 ± 0.007 mPa·s
293.15 K, 101.33 kPa | 0.644 ± 0.005 mPa·s and 0.644 ± 0.007 mPa·s and 0.646 ± 0.006 mPa·s
298 K, 101.3 kPa | 0.627 ± 0.008 mPa·s
298.15 K, 101.33 kPa | 0.6215 ± 0.0083 mPa·s and 0.615 ± 0.025 mPa·s
298.45 K, 101 kPa | 0.619 ± 0.006 mPa·s
303.15 K, 101.33 kPa | 0.581 ± 0.006 mPa·s and 0.581 ± 0.024 mPa·s
313.15 K, 101.33 kPa | 0.522 ± 0.005 mPa·s and 0.522 ± 0.021 mPa·s
318 K, 101.3 kPa | 0.5187 ± 0.02 mPa·s
318.15 K, 101 kPa | 0.5208 ± 0.014 mPa·s and 0.51 ± 0.006 mPa·s and 0.505 ± 0.005 mPa·s
323.15 K, 101 kPa | 0.486 ± 0.006 mPa·s
323.15 K, 101.33 kPa | 0.4845 ± 0.0066 mPa·s

CC(=O)c1ccc(C)cc1
303.15 K
Conditions | viscosity [mPa·s]
100 kPa | 1.581 ± 0.021
101 kPa | 1.581 ± 0.021

c1ccc(Cc2ccccc2)cc1
Conditions | viscosity [mPa·s]
302.85 K, 101 kPa | 2.611 ± 0.069

CCC1(C)OC1C#N (stereo not given)
101 kPa
Conditions | viscosity [mPa·s]
293.15 K | 1.485 ± 0.039
298.15 K | 1.34 ± 0.04
303.15 K | 1.19 ± 0.03
313.15 K | 0.98 ± 0.03
323.15 K | 0.84 ± 0.02

CCCCC(CC)COP(=O)(O)OCC(CC)CCCC (stereo not given)
101 kPa
Conditions | viscosity [mPa·s]
303.15 K | 20.25 ± 0.81
313.15 K | 13.35 ± 0.54

CCCCCCn1cc[n+](C)c1.F[P-](F)(F)(F)(F)F
101 kPa
Conditions | viscosity [mPa·s]
303.15 K | 497.1 ± 150
308.15 K | 364.4 ± 110
313.15 K | 273 ± 83
318.15 K | 208.5 ± 63

OCC1CC1
101 kPa
Conditions | viscosity [mPa·s]
293.15 K | 3.985 ± 0.085
298.15 K | 3.447 ± 0.074
303.15 K | 3.002 ± 0.064
308.15 K | 2.629 ± 0.056
313.15 K | 2.315 ± 0.05
323.15 K | 1.819 ± 0.039

CCCCCCCCCCCCN
Conditions | viscosity [mPa·s]
303.15 K, 101 kPa | 2.658 ± 0.029

C=Cn1cc[n+](CC(N)=O)c1.O=S(=O)([N-]S(=O)(=O)C(F)(F)F)C(F)(F)F + CC#N
viscosity [mPa·s], [1], 100 kPa
Conditions | 298.15 K | 303.15 K | 308.15 K | 313.15 K | 318.15 K | 323.15 K
x1 = 0.1 | – | 9.97 ± 2 | 9.16 ± 1.9 | 8.17 ± 1.6 | 7.74 ± 1.6 | 7.02 ± 1.4
x1 = 0.201 | 75.29 ± 15 | 68.64 ± 14 | 59.58 ± 12 | 50.56 ± 10 | – | –
x1 = 0.3026 | – | 246.5 ± 51 | – | – | – | –
x1 = 0.4011 | 805.9 ± 180 | 683.3 ± 150 | 549.2 ± 120 | – | – | –

N#C[S-].NC(N)=[NH2+] + CC(N)=O
viscosity [mPa·s], [1], 100 kPa
Conditions | 293.15 K | 298.13 K | 303.15 K | 308.15 K | 313.15 K | 318.15 K | 323.15 K
x1 = 0.2 | – | – | 16.53 ± 0.22 | 13.36 ± 0.18 | 10.98 ± 0.15 | 9.17 ± 0.12 | 7.72 ± 0.1
x1 = 0.25 | 25.56 ± 0.34 | 21.49 ± 0.28 | 17.47 ± 0.23 | 14.41 ± 0.19 | 12.05 ± 0.16 | 10.31 ± 0.14 | 8.95 ± 0.12
x1 = 0.3333 | 25.06 ± 0.33 | 21.05 ± 0.28 | 17.16 ± 0.23 | 14.05 ± 0.19 | 11.66 ± 0.15 | 9.89 ± 0.13 | 8.48 ± 0.11

ClC1CCCCC1 + C1CCCCC1
viscosity [mPa·s], [1], 101.3 kPa
Conditions | x2 = 0.095 | x2 = 0.2004 | x2 = 0.2999 | x2 = 0.3989 | x2 = 0.4989 | x2 = 0.5993 | x2 = 0.6986 | x2 = 0.8004 | x2 = 0.9006
298.15 K | 1.485 ± 0.014 | 1.394 ± 0.013 | 1.315 ± 0.012 | 1.241 ± 0.011 | 1.172 ± 0.01 | 1.106 ± 0.0096 | 1.046 ± 0.009 | 0.9893 ± 0.0085 | 0.9379 ± 0.008
313.15 K | 1.153 ± 0.011 | 1.086 ± 0.01 | 1.025 ± 0.0097 | 0.9696 ± 0.0091 | 0.9164 ± 0.0085 | 0.8667 ± 0.008 | 0.821 ± 0.0075 | 0.7771 ± 0.0071 | 0.7392 ± 0.0067

Cc1cccc(O)c1
Conditions | viscosity
293.15 K, 101 kPa | 16.9 ± 0.28 mPa·s
298 K, 101.3 kPa | 13.19 ± 0.26 mPa·s
303 K, 101.3 kPa | 9.877 ± 0.17 mPa·s
308 K, 101.3 kPa | 7.599 ± 0.1 mPa·s
308.15 K, 101.33 kPa | 7.635 ± 0.16 mPa·s
313 K, 101.3 kPa | 6.146 ± 0.065 mPa·s
313.15 K, 101 kPa | 5.925 ± 0.064 mPa·s and 6.542 ± 0.18 mPa·s
313.15 K, 101.3 kPa | 6.252 ± 0.075 mPa·s
313.15 K, 101.33 kPa | 6.18 mPa·s
318 K, 101.3 kPa | 4.968 ± 0.057 mPa·s
318.15 K, 101 kPa | 5.373 ± 0.69 mPa·s and 5.373 ± 0.46 mPa·s
323.15 K, 101.3 kPa | 4.111 ± 0.05 mPa·s

CCCCOC(=O)C(C)O (stereo not given) + CC(O)CO
[1], 101 kPa
Conditions | viscosity [mPa·s]
293.15 K, x1 = 0.3 | 17.35 ± 0.18
293.15 K, x1 = 0.6996 | 6.325 ± 0.09
303.15 K, x1 = 0.0999 | 21.45 ± 0.2
308.15 K, x1 = 0.3999 | 6.935 ± 0.08
323.15 K, x1 = 0.2 | 6.665 ± 0.067
323.15 K, x1 = 0.4998 | 3.435 ± 0.043

C[N+](=O)[O-] + CC(C)=O
[1], 298.15 K, 101 kPa
Conditions | viscosity [mPa·s]
x1 = 0.1326 | 0.356 ± 0.036
x1 = 0.2566 | 0.3972 ± 0.04
x1 = 0.3714 | 0.4352 ± 0.044
x1 = 0.479 | 0.4701 ± 0.048
x1 = 0.5797 | 0.5032 ± 0.051
x1 = 0.6739 | 0.5325 ± 0.054
x1 = 0.7631 | 0.5603 ± 0.056
x1 = 0.8465 | 0.5855 ± 0.059
x1 = 0.9257 | 0.6101 ± 0.062

Cc1cccc(O)c1 + c1ccccc1
[1], 308.15 K, 101 kPa
Conditions | viscosity [mPa·s]
x1 = 0.1019 | 0.6327 ± 0.0055
x1 = 0.1702 | 0.7272 ± 0.0062
x1 = 0.305 | 0.9887 ± 0.0082
x1 = 0.4025 | 1.282 ± 0.01
x1 = 0.5186 | 1.693 ± 0.014
x1 = 0.6441 | 2.436 ± 0.02
x1 = 0.768 | 3.648 ± 0.03
x1 = 0.8611 | 4.963 ± 0.041
x1 = 0.9525 | 6.937 ± 0.056

CCCCC(CC)COP(=O)(O)OCC(CC)CCCC (stereo not given) + CO
[1], 303.15 K, 101 kPa
Conditions | viscosity [mPa·s]
x1 = 0.0413 | 1.349 ± 0.033
x1 = 0.0751 | 2.075 ± 0.049
x1 = 0.1088 | 2.893 ± 0.067
x1 = 0.1723 | 4.725 ± 0.11
x1 = 0.2681 | 7.099 ± 0.15
x1 = 0.3639 | 9.284 ± 0.2
x1 = 0.4602 | 11.18 ± 0.24
x1 = 0.6161 | 13.99 ± 0.3
x1 = 0.7023 | 15.23 ± 0.33
x1 = 0.8292 | 17.17 ± 0.39
x1 = 0.928 | 18.67 ± 0.43

— the CheMixHub viscosity set
